# Source: article PMC6271227, “Biopharmaceutical Profiling of New Antitumor Pyrazole Derivatives” (Molecules, 2014)
# How the values were obtained:
# [1] = Analysis by the general solubility equation (GSE): logP and melting point; type: physicochemical; settings: Mp >200 °C, moderate lipophilicity
# Description: The general solubility equation (GSE) developed by Jain et al. provides a quantitative relationship between the three parameters: log Sw = 0.5 − 0.01(Mp − 25) − log P(1)
# Starting from the general solubility equation, the poorly soluble drugs were sub-classified by the group of Bergström et al. in two types of molecules: “grease ball” and “brick dust” molecules. […] These compounds cannot form bonds with water molecules, and therefore their solubility is limited by the solvation process. By contrast, “brick dust” molecules are usually compounds with rather rigid and flat molecules with a high melting point (>190 °C) and moderate lipophilicity. Their solubility is being solid-state-limited being mainly restricted by the inability of the compound to dissociate from the crystal lattice and can generally be improved by different methods involving a disruption of the stable crystal lattice.
# NCI 60 cancer lines = tested on: NCI 60 cancer lines; parameters: method as in PMID 20728965; settings: cited from earlier work
# [2] = the 43 lines with logCI50 under −4
type of poorly soluble molecule (grease ball / brick dust) [1],Compound,number of the NCI 60 cancer lines with logCI50 under −4 (NCI 60 cancer lines),logCI50 average (NCI 60 cancer lines; [2]),logCI50 values (range) (NCI 60 cancer lines; [2])
brick dust,Cc1cc(NC(=S)NC(=O)c2ccccc2)n[nH]1 [BT2],–,–,–
–,O=C(NC(=S)Nc1cc(-c2ccc(Br)cc2)n[nH]1)c1ccccc1 [N-benzoyl-N'-[3-(4-bromophenyl)-1H-pyrazol-5-yl]-thiourea],43,−5.02,−4.12 to −5.75
brick dust,Cc1ccc(C(=O)NC(=S)Nc2cc(C)nn2-c2ccccc2)cc1 [BM5],–,–,–
brick dust,Cc1cc(NC(=S)NC(=O)c2ccc(Cl)cc2)n[nH]1 [BC2],–,–,–
brick dust,Cc1ccc(C(=O)NC(=S)Nc2cc(C)[nH]n2)cc1 [BM2],–,–,–
